Measurements reported in US20120115877A1, “Facially Amphiphilic Compounds, Compositions, And Uses Thereof In Treating Cancer” (POLYMEDIX, INC., priority 2010, published 2012).

How the values were obtained:
Assay type in all cases: cell-based, human
[1] = system: A498; experiment: NCI-60 screen, Renal Cancer; conditions: 10 μM
Experimental: (§1) Several compounds were tested at single concentrations (10 μM) against 59 different human tumor cell lines, representing leukemia, melanoma and cancers of the lung, colon, brain, ovary, breast, prostate, and kidney (see, Table 3). The human tumor cell lines of the cancer screening panel were grown in RPMI 1640 medium containing 5% fetal bovine serum and 2 mM L-glutamine. For a typical screening experiment, cells were inoculated into 96 well microtiter plates in 100 μL at plating densities ranging from 5,000 to 40,000 cells/well depending on the doubling time of individual cell lines. After cell inoculation, the microtiter plates were incubated at 37° C., 5% CO2, 95% air and 100% relative humidity for 24 hours prior to addition of the compounds.
(§2) After 24 hours, two plates of each cell line were fixed in situ with TCA, to represent a measurement of the cell population for each cell line at the time of drug addition (Tz). Compounds were solubilized in dimethyl sulfoxide at 400-fold the desired final maximum test concentration and stored frozen prior to use. At the time of drug addition, an aliquot of frozen concentrate was thawed and diluted to twice the desired final maximum test concentration with complete medium containing 50 μg/ml gentamicin. Additional four, 10-fold or ½ log serial dilutions were made to provide a total of five compound concentrations plus control. Aliquots of 100 μl of these different drug dilutions were added to the appropriate microtiter wells already containing 100 μl of medium, resulting in the required final compound concentrations.
(§3) Following drug addition, the plates were incubated for an additional 48 hours at 37° C., 5% CO2, 95% air, and 100% relative humidity. For adherent cells, the assay was terminated by the addition of cold TCA. Cells were fixed in situ by the gentle addition of 50 μl of cold 50% (w/v) TCA (final concentration, 10% TCA) and incubated for 60 minutes at 4° C. The supernatant was discarded, and the plates were washed five times with tap water and air dried. Sulforhodamine B (SRB) solution (100 μl) at 0.4% (w/v) in 1% acetic acid was added to each well, and plates were incubated for 10 minutes at room temperature. After staining, unbound dye was removed by washing five times with 1% acetic acid and the plates were air dried. Bound stain was subsequently solubilized with 10 mM trizma base, and the absorbance was read on an automated plate reader at a wavelength of 515 nm. For suspension cells, the methodology was the same except that the assay was terminated by fixing settled cells at the bottom of the wells by gently adding 50 μl of 80% TCA (final concentration, 16% TCA). Using the seven absorbance measurements (time zero, (Tz), control growth, (C), and test growth in the presence of drug at the five concentration levels (Ti)), the percentage growth was calculated at each of the compound concentrations levels. Percentage growth inhibition was calculated as:
(§4) [(Ti−Tz)/(C−Tz)]×100 for concentrations for which Ti>/=Tz
(§5) [(Ti−Tz)/Tz]×100 for concentrations for which Ti<Tz.
(§6) Three dose response parameters were calculated for each compound. Growth inhibition of 50% (GI50) was calculated from [(Ti−Tz)/(C−Tz)]×100=50, which is the compound concentration resulting in a 50% reduction in the net protein increase (as measured by SRB staining) in control cells during the compound incubation. The compound concentration resulting in total growth inhibition (TGI) was calculated from Ti=Tz. The LC50 (concentration of compound resulting in a 50% reduction in the measured protein at the end of the compound treatment as compared to that at the beginning) indicating a net loss of cells following treatment was calculated from [(Ti−Tz)/Tz]×100=−50. Values were calculated for each of these three parameters if the level of activity was reached; however, if the effect was not reached or was exceeded, the value for that parameter was expressed as greater or less than the maximum or minimum concentration tested.

[2] = system: ACHN; experiment: NCI-60 screen, Renal Cancer; conditions: 10 μM
Experimental: as §1, §2, §3, §4, §5, §6

[3] = system: SN12C; experiment: NCI-60 screen, Renal Cancer; conditions: 10 μM
Experimental: as §1, §2, §3, §4, §5, §6

[4] = system: TK-10; experiment: NCI-60 screen, Renal Cancer; conditions: 10 μM
Experimental: as §1, §2, §3, §4, §5, §6

[5] = system: NCI/ADR-RES; experiment: NCI-60 screen, Ovarian Cancer; conditions: 10 μM
Experimental: as §1, §2, §3, §4, §5, §6

[6] = system: OVCAR-4; experiment: NCI-60 screen, Ovarian Cancer; conditions: 10 μM
Experimental: as §1, §2, §3, §4, §5, §6

[7] = system: OVCAR-3; experiment: NCI-60 screen, Ovarian Cancer; conditions: 10 μM
Experimental: as §1, §2, §3, §4, §5, §6

[8] = system: OVCAR-8; experiment: NCI-60 screen, Ovarian Cancer; conditions: 10 μM
Experimental: as §1, §2, §3, §4, §5, §6

[9] = system: IGROV1; experiment: NCI-60 screen, Ovarian Cancer; conditions: 10 μM
Experimental: as §1, §2, §3, §4, §5, §6

[10] = system: SK-OV-3; experiment: NCI-60 screen, Ovarian Cancer; conditions: 10 μM
Experimental: as §1, §2, §3, §4, §5, §6

[11] = system: OVCAR-5; experiment: NCI-60 screen, Ovarian Cancer; conditions: 10 μM
Experimental: as §1, §2, §3, §4, §5, §6

[12] = system: UACC-257; experiment: NCI-60 screen, Melanoma; conditions: 10 μM
Experimental: as §1, §2, §3, §4, §5, §6

[13] = system: SK-MEL-5; experiment: NCI-60 screen, Melanoma; conditions: 10 μM
Experimental: as §1, §2, §3, §4, §5, §6

[14] = system: MDA-MB-435; experiment: NCI-60 screen, Melanoma; conditions: 10 μM
Experimental: as §1, §2, §3, §4, §5, §6

[15] = system: LOX IMVI; experiment: NCI-60 screen, Melanoma; conditions: 10 μM
Experimental: as §1, §2, §3, §4, §5, §6

[16] = system: SK-MEL-2; experiment: NCI-60 screen, Melanoma; conditions: 10 μM
Experimental: as §1, §2, §3, §4, §5, §6

[17] = system: UACC-62; experiment: NCI-60 screen, Melanoma; conditions: 10 μM
Experimental: as §1, §2, §3, §4, §5, §6

[18] = system: SK-MEL-28; experiment: NCI-60 screen, Melanoma; conditions: 10 μM
Experimental: as §1, §2, §3, §4, §5, §6

[19] = system: MALME-3M; experiment: NCI-60 screen, Melanoma; conditions: 10 μM
Experimental: as §1, §2, §3, §4, §5, §6

[20] = system: CCRF-CEM; experiment: NCI-60 screen, Leukemia; conditions: 10 μM
Experimental: as §1, §2, §3, §4, §5, §6

[21] = system: K-562; experiment: NCI-60 screen, Leukemia; conditions: 10 μM
Experimental: as §1, §2, §3, §4, §5, §6

[22] = system: MOLT-4; experiment: NCI-60 screen, Leukemia; conditions: 10 μM
Experimental: as §1, §2, §3, §4, §5, §6

[23] = system: HL-60(TB); experiment: NCI-60 screen, Leukemia; conditions: 10 μM
Experimental: as §1, §2, §3, §4, §5, §6

[24] = system: SR; experiment: NCI-60 screen, Leukemia; conditions: 10 μM
Experimental: as §1, §2, §3, §4, §5, §6

[25] = system: BT-549; experiment: NCI-60 screen, Breast Cancer; conditions: 10 μM
Experimental: as §1, §2, §3, §4, §5, §6

[26] = system: MDA-MB-31/ATCC; experiment: NCI-60 screen, Breast Cancer; conditions: 10 μM, MDA-MB-231/ATCC
Experimental: as §1, §2, §3, §4, §5, §6

Compound	Percent Growth [1] [%]	Percent Growth [2] [%]	Percent Growth [3] [%]	Percent Growth [4] [%]	Percent Growth [5] [%]	Percent Growth [6] [%]	Percent Growth [7] [%]	Percent Growth [8] [%]	Percent Growth [9] [%]	Percent Growth [10] [%]	Percent Growth [11] [%]	Percent Growth [12] [%]	Percent Growth [13] [%]	Percent Growth [14] [%]	Percent Growth [15] [%]	Percent Growth [16] [%]	Percent Growth [17] [%]	Percent Growth [18] [%]	Percent Growth [19] [%]	Percent Growth [20] [%]	further results
NCCc1cc(Br)cc(C#Cc2cccc(C#Cc3cc(Br)cc(CCN)c3)c2)c1 [Compound A]	84.01	−46.91	22.8	8.048	23.97	−28.5	−35.66	−14.54	−4.832	94.37	60.77	68.25	80.5	−16.19	−76.91	3.515	26.03	79.76	106.8	−12.43	Percent Growth [21]: −45.67%; Percent Growth [22]: −43.65%; Percent Growth [23]: 6.88%; Percent Growth [24]: −43.87%; Percent Growth [25]: 102%; Percent Growth [26]: 4.31%
N=C(N)NCCCCC(=O)Nc1cc(C(F)(F)F)cc(NC(=O)Nc2ccc(NC(=O)Nc3cc(C(F)(F)F)cc(NC(=O)CCCCNC(=N)N)c3OC3CCNC3)cc2)c1OC1CCNC1 (stereo not shown) [Compound B]	66.45	62.45	64.8	60.45	87.71	23.18	45.06	66.59	82.4	59.3	77.33	75.89	50.91	48.12	59.57	60.98	75.91	68.29	83.13	60.57	Percent Growth [21]: 38.56%; Percent Growth [22]: 63.33%; Percent Growth [23]: 58.59%; Percent Growth [24]: 77.31%; Percent Growth [25]: 89.61%; Percent Growth [26]: 73.02%
N=C(N)NCCCCC(=O)Nc1cc(C(F)(F)F)cc(NC(=O)c2cc(C(=O)Nc3cc(C(F)(F)F)cc(NC(=O)CCCCNC(=N)N)c3SCCN)ncn2)c1SCCN [Compound C]	69.5	53.08	65.97	38.3	55.27	38.79	37.56	39.11	51.71	82.66	75.78	61.31	34.55	35.56	50.64	54.29	55.93	61.39	63.62	24.46	Percent Growth [21]: 4.995%; Percent Growth [22]: 45.62%; Percent Growth [23]: 30.11%; Percent Growth [24]: 28.12%; Percent Growth [25]: 96.67%; Percent Growth [26]: 81.52%
NCCCc1cccc(-c2ccc3sc4ccc(-c5cccc(CCCN)c5)cc4c3c2)c1 [Compound D]	81.64	68.97	84.45	86.48	95.39	59.85	62.71	83.89	80.28	103.1	96.93	100	100.8	81.14	26.77	81	88.44	99.21	134.1	5.12	Percent Growth [21]: 12.99%; Percent Growth [22]: 2.072%; Percent Growth [23]: 68.33%; Percent Growth [24]: 0%; Percent Growth [25]: 105.8%; Percent Growth [26]: 60.18%
c1cc(-c2ccc3sc4ccc(-c5ccnc(N6CCNCC6)c5)cc4c3c2)cc(N2CCNCC2)n1 [Compound E]	75.11	−69.18	−16.99	−52.46	3.12	−87.74	−94.47	−61.04	−43.57	51.66	−46.66	−70.37	63.85	−84.03	−80.29	−73.48	−41.07	−51.91	−4.679	−64.03	Percent Growth [21]: −70.89%; Percent Growth [22]: −75.28%; Percent Growth [23]: −24.59%; Percent Growth [24]: −60.7%; Percent Growth [25]: 98.88%; Percent Growth [26]: −41.26%
